Experimental data as given in patent US10258640B2, “Method of inhibiting quorum sensing in Pseudomonas aeruginosa” (priority 2015, dated 2019).

Experiments:
P. aeruginosa biofilms = experiment: Biofilm treatment (GFP-expressing cells, propidium iodide staining, imaging); format: cell-based, Pseudomonas aeruginosa
Experimental: FIG. 8 depicts the effects of auranofin, and its combination either with colistin or tobramycin, on the morphology of biofilms formed using P. aeruginosa cells expressing green fluorescent protein (GFP). DNA from dead cells were labeled with propidium iodide. Auranofin was added either prior to (lower panels) or after formation of the biofilm (24 h before imaging, middle panels). Colistin and tobramycin were added after formation of the biofilm (24 h before imaging, middle panels). […] Scale bar: 5 μm.
Quorum sensing inhibitors are known to affect biofilm morphology and structure. Since auranofin inhibits Vfr, which in turn affects quorum sensing, the effects of auranofin treatment on P. aeruginosa biofilms were investigated.

[1] = system: pqs quorum-sensing system; experiment: PA01 pqsA-gfp reporter assay; format: cell-based, Pseudomonas aeruginosa; settings: various micromolar concentrations
[2] = target: wild-type Vfr binding to the promoter of lasR (plasR) (Pseudomonas aeruginosa, UniProt P55222); experiment: Electrophoretic mobility shift assay (EMSA), wild-type Vfr; settings: increasing concentrations
Description: (§1) It depicts auranofin inhibiting the binding of wild-type Vfr, but not of the mutant pentaCys variant, to a DNA fragment containing the lasR promoter sequence (plasR) in a dose dependent manner.
(§2) It was hypothesized that auranofin inhibits Vfr, a global response regulator dependent on cyclic-AMP, which is known to control Type III secretion, Type IV pilus assembly and the quorum sensing networks (las and rhl). This was validated using electrophoretic mobility shift assays (EMSA) (see FIG. 6). Based on the EMSA, it can be seen that the binding of wild-type Vfr to the promoter of lasR (plasR), was inhibited by treatment with auranofin. In contrast, the binding of mutant Vfr proteins (C38S/C97S or C38S/C183S) to the same DNA fragment was not inhibited by auranofin.

pyocyanin = experiment: Pyocyanin levels in culture supernatants (absorbance at 691 nm); format: cell-based, Pseudomonas aeruginosa; settings: culture supernatants after 7 hours of treatment, various micromolar concentrations
Experimental: Pyocyanin levels were determined via absorbance at 691 nm.

P. aeruginosa (PA01) [3] = experiment: Twitching motility assay; format: cell-based, Pseudomonas aeruginosa; settings: 10 μM
Description: (§3) The top-left and bottom-left petri dishes contain P. aeruginosa (PA01) and PA01-lasIrhlI, respectively, serving as the controls.

P. aeruginosa proteome = experiment: Proteomic analysis of auranofin-treated cultures; format: cell-based, Pseudomonas aeruginosa; settings: proteome in presence or absence of auranofin
[4] = system: Δvfr strain expressing pentaCys Vfr; experiment: Twitching motility in Δvfr strain complemented with pentaCys Vfr; format: cell-based, Pseudomonas aeruginosa
P. aeruginosa (PA01) [5] = experiment: Swimming motility assay; format: cell-based, Pseudomonas aeruginosa; settings: 10 μM
[6] = system: Δvfr strain expressing pentaCys Vfr; experiment: Quorum sensing (LasB production) in Δvfr strain complemented with pentaCys Vfr; format: cell-based, Pseudomonas aeruginosa
P. aeruginosa = experiment: Growth of P. aeruginosa; format: cell-based, Pseudomonas aeruginosa; settings: low micromolar concentrations
[7] = system: lasA, rhlA, pqsA, exsC, pscL, pilM and pilY genes; experiment: Quantitative RT-PCR of RNA levels; format: cell-based, Pseudomonas aeruginosa
[8] = system: rhl quorum-sensing system; experiment: PA01 rhlA-gfp reporter assay; format: cell-based, Pseudomonas aeruginosa; settings: various micromolar concentrations
[9] = system: mutant Vfr proteins (C38S/C97S or C38S/C183S) binding to plasR; experiment: Electrophoretic mobility shift assay (EMSA), mutant Vfr; parameters: species or system Pseudomonas aeruginosa; settings: increasing concentrations
Description: as §1, §2

P. aeruginosa (PA01) [10] = experiment: Swarming motility assay; format: cell-based, Pseudomonas aeruginosa; settings: 10 μM
Description: as §3

[11] = system: las quorum-sensing system; experiment: PA01 lasB-gfp cell-based fluorescence reporter assay; parameters: species or system Pseudomonas aeruginosa; settings: various micromolar concentrations
Description: The inhibition of quorum sensing has been observed by the inventors during a chemical screen set up to look for small-molecule inhibitors of quorum sensing in P. aeruginosa. The assay used is a cell-based fluorescence assay (PA01 lasB-gfp) in which the expression of GFP is controlled by a las-regulated promoter. Inhibition of induction of the las quorum-sensing system by a small molecule is marked by the reduction in GFP signal relative to an untreated sample.

elastase (LasB) = experiment: Elastase activity in culture supernatants (commercial elastase activity kit); format: cell-based, Pseudomonas aeruginosa; settings: culture supernatants after 7 hours of treatment, various micromolar concentrations
Experimental: LasB levels were measured using a commercial elastase activity kit.

rhamnolipids = experiment: Rhamnolipid levels in culture supernatants (MRM mass spectrometry); format: cell-based, Pseudomonas aeruginosa; settings: culture supernatants after 7 hours of treatment, various micromolar concentrations
Experimental: Rhamnolipid levels were determined using multiple reaction monitoring (MRM) mass spectrometry.

Chain of wild-type Vfr binding to the promoter of lasR (plasR) (P55222 whole entry, the tested form may be a part): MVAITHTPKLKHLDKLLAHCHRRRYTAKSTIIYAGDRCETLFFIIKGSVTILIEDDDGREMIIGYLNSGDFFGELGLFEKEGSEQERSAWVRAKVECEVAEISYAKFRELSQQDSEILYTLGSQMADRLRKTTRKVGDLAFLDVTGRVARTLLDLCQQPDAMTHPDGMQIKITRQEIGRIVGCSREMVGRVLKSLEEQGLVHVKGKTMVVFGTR

Compound | biofilm morphology disruption and killing, together with colistin (P. aeruginosa biofilms; auranofin together with colistin) | biofilm morphology disruption and killing, together with tobramycin (P. aeruginosa biofilms; auranofin together with tobramycin) | effect on biofilm morphology and cell death (P. aeruginosa biofilms; auranofin treatment prior to biofilm formation) | induction of pqs (PA01 pqsA-gfp) quorum-sensing network, RFU/OD against time [1] | binding of wild-type Vfr to the promoter of lasR (plasR) [2] | level of virulence factor pyocyanin (pyocyanin) | twitching motility (P. aeruginosa (PA01) [3]) | cellular levels of proteins controlled by quorum sensing (P. aeruginosa proteome) | levels of proteins involved in Type III secretion and formation of the Type IV pilus (P. aeruginosa proteome) | twitching in the strain expressing the pentaCys Vfr [4] | swimming motility (P. aeruginosa (PA01) [5]) | QS (LasB production) in the strain expressing the pentaCys Vfr [6] | effect on growth of P. aeruginosa (P. aeruginosa) | RNA levels of quorum-sensing regulated, Type III secretion and Type IV pilus assembly genes [7] | induction of rhl (PA01 rhlA-gfp) quorum-sensing network, RFU/OD against time [8] | binding of mutant Vfr proteins to the same DNA fragment (plasR) [9] | swarming motility (P. aeruginosa (PA01) [10]) | induction of las (PA01 lasB-gfp) quorum-sensing network, RFU/OD against time [11] | level of virulence factor LasB (elastase activity) (elastase (LasB)) | level of virulence factor rhamnolipids (rhamnolipids)
CC(=O)OC[C@H]1O[C@@H]([S-])[C@H](OC(C)=O)[C@@H](OC(C)=O)[C@@H]1OC(C)=O.CCP(CC)CC.[Au+] [auranofin] | synergistic effects | synergistic effects | substantial cell death and the loss of the characteristic morphology of normal biofilms | completely inhibiting | inhibited | reduced | inhibit | down-regulated | down-regulation | still able to inhibit | does not inhibit | still able to inhibit | not affecting growth | generally down-regulated | completely inhibiting | not inhibited | inhibit | completely inhibiting | reduced | reduced
OC[C@H]1O[C@H]([S-])[C@H](O)[C@@H](O)[C@@H]1O.[Au+] [aurothioglucose] |  |  |  |  |  |  |  |  |  |  |  |  |  |  |  |  |  | completely inhibiting |  | 
sodium aurothiomalate |  |  |  |  |  |  |  |  |  |  |  |  |  |  |  |  |  | completely inhibiting |  | 
